Source: PubChem BioAssay AID330 (DTP/NCI, 2004)
Several values for one entry are separate records, joined by “and”; a condition that tells them apart may be missing. Identical values can stand only once. Inconclusive results and toxic doses are left out.

Test system: P388 leukemia ip, CD2F1 mice, survival T/C
Experiment: NCI In Vivo Anticancer Drug Screen. Data for tumor model P388 Leukemia (intraperitoneal) in CD2F1 (CDF1) mice
Conditions: endpoint: median survival time, higher = longer survival
Method in brief: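 Mice carrying the transplanted tumor received test compound or vehicle. Survival was recorded in each group, and the value is the treated-group measurement divided by that of the vehicle-treated control group.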

[1] = dose: 50.0 mg/kg/injection, schedule: Q01DX009 (ip), vehicle: saline with Tween-80
[2] = dose: 100.0 mg/kg/injection, schedule: Q01DX009 (ip), vehicle: saline with Tween-80
[3] = dose: 200.0 mg/kg/injection, schedule: Q01DX009 (ip), vehicle: saline with Tween-80
[4] = dose: 25.0 mg/kg/injection, schedule: Q04DX003 (ip), vehicle: saline with Tween-80
[5] = dose: 50.0 mg/kg/injection, schedule: Q01DX005 (ip), vehicle: saline
[6] = dose: 3.12 mg/kg/injection, schedule: Q01DX009 (ip), vehicle: saline
[7] = dose: 6.25 mg/kg/injection, schedule: Q01DX009 (ip), vehicle: saline

Question: Which results are given for `O=C(Nc1nccs1)Nc1ccc(Br)cc1C(F)(F)F`?
Answer: T/C [1]: 110 % of control; T/C [2]: 113 % of control; T/C [3]: 113 % of control

Question: With `[CH3][Ge]([CH3])([CH3])/[C](=[C](\c1ccccc1)[Ge]([CH3])([CH3])[CH3])c1ccccc1` as the molecule, how does the T/C (dose: 50.0 mg/kg/injection, schedule: Q01DX009 (ip), vehicle: saline) read?
Answer: 106 % of control

Question: And the T/C (dose: 100.0 mg/kg/injection, schedule: Q01DX009 (ip), vehicle: saline)?
Answer: 92 % of control

Question: What about the T/C (dose: 200.0 mg/kg/injection, schedule: Q01DX009 (ip), vehicle: saline) of the same molecule?
Answer: 93 % of control

Question: For `CCOC(=O)N1Cc2cc3ncccc3nc2C1`, which T/C (dose: 25.0 mg/kg/injection, schedule: Q01DX005 (ip), vehicle: Klucel (hydroxypropylcellulose) (HPC)) is on record?
Answer: 111 % of control

Question: What about the T/C (dose: 50.0 mg/kg/injection, schedule: Q01DX005 (ip), vehicle: Klucel (hydroxypropylcellulose) (HPC)) of the same molecule?
Answer: 100 % of control

Question: For `Nc1nnc2nc(C(C(=O)c3cccc(O)c3)c3nc4nnc(N)n4[nH]c3=O)c(=O)[nH]n12`, which T/C (dose: 60.0 mg/kg/injection, schedule: Q01DX005 (ip), vehicle: saline) is on record?
Answer: 97 % of control

Question: What about the T/C (dose: 120.0 mg/kg/injection, schedule: Q01DX005 (ip), vehicle: saline) of the same molecule?
Answer: 106 % of control

Question: What about the T/C (dose: 240.0 mg/kg/injection, schedule: Q01DX005 (ip), vehicle: saline) of the same molecule?
Answer: 97 % of control

Question: What does the source list for `Nc1nc(N)c(N=O)c(Nc2ccccc2)n1`?
Answer: T/C [1]: 97 % of control; T/C [2]: 99 % of control; T/C [3]: 96 % of control

Question: What does the source list for `COc1ccc(C(=O)/C=N/O)cc1`?
Answer: T/C [4]: 95 % of control; T/C (dose: 50.0 mg/kg/injection, schedule: Q04DX003 (ip), vehicle: saline with Tween-80): 95 % of control; T/C (dose: 100.0 mg/kg/injection, schedule: Q04DX003 (ip), vehicle: saline with Tween-80): 86 % of control

Question: How did the T/C (dose: 50.0 mg/kg/injection, schedule: Q01DX009 (ip), vehicle: Klucel (hydroxypropylcellulose) (HPC)) turn out when `CCCCCCCCCCC(=O)C(=O)c1ccc(O)c(C)c1O` was run?
Answer: 100 % of control

Question: And the T/C (dose: 100.0 mg/kg/injection, schedule: Q01DX009 (ip), vehicle: Klucel (hydroxypropylcellulose) (HPC))?
Answer: 99 % of control

Question: What about the T/C (dose: 200.0 mg/kg/injection, schedule: Q01DX009 (ip), vehicle: Klucel (hydroxypropylcellulose) (HPC)) of the same molecule?
Answer: 110 % of control

Question: For `Cc1cc(=O)oc2cc(NCS(=O)(=O)O)ccc12`, which T/C [5] is on record?
Answer: 100 % of control

Question: What about the T/C (dose: 100.0 mg/kg/injection, schedule: Q01DX005 (ip), vehicle: saline) of the same molecule?
Answer: 98 % of control

Question: What about the T/C (dose: 200.0 mg/kg/injection, schedule: Q01DX005 (ip), vehicle: saline) of the same molecule?
Answer: 97 % of control

Question: Which results are given for `Clc1cc(CBr)c(CBr)cc1Cl`?
Answer: T/C (dose: 3.13 mg/kg/injection, schedule: Q01DX009 (ip), vehicle: saline with Tween-80): 95 % of control; T/C (dose: 6.25 mg/kg/injection, schedule: Q01DX009 (ip), vehicle: saline with Tween-80): 100 % of control; T/C (dose: 12.5 mg/kg/injection, schedule: Q04DX003 (ip), vehicle: saline with Tween-80): 113 % of control; T/C [4]: 109 % of control

Question: For `O=C(/C=C/c1cccc(Cl)c1)c1ccc(Cl)cc1`, which T/C (dose: 30.0 mg/kg/injection, schedule: Q01DX005 (ip), vehicle: saline with Tween-80) is on record?
Answer: 102 % of control

Question: What about the T/C (dose: 60.0 mg/kg/injection, schedule: Q01DX005 (ip), vehicle: saline with Tween-80) of the same molecule?
Answer: 100 % of control

Question: What about the T/C (dose: 120.0 mg/kg/injection, schedule: Q01DX005 (ip), vehicle: saline with Tween-80) of the same molecule?
Answer: 100 % of control

Question: What about the T/C (dose: 240.0 mg/kg/injection, schedule: Q01DX005 (ip), vehicle: saline with Tween-80) of the same molecule?
Answer: 110 % of control

Question: `CSCCC([NH-])C(=O)O.CSCCC([NH-])C(=O)O.[Cu+2]` (stereo not drawn) was tested. Which T/C [6] did it give?
Answer: 102 % of control

Question: What about the T/C (dose: 6.25 mg/kg/injection, schedule: Q01DX009 (ip), vehicle: Klucel (hydroxypropylcellulose) (HPC)) of the same molecule?
Answer: 94 % of control

Question: And the T/C [7]?
Answer: 94 % of control

Question: What about the T/C (dose: 12.5 mg/kg/injection, schedule: Q01DX009 (ip), vehicle: Klucel (hydroxypropylcellulose) (HPC)) of the same molecule?
Answer: 94 % of control

Question: And the T/C (dose: 12.5 mg/kg/injection, schedule: Q01DX009 (ip), vehicle: saline)?
Answer: 100 % of control

Question: For `COC1=CC(=O)C=C(CO)C1=O`, which T/C (dose: 1.56 mg/kg/injection, schedule: Q01DX009 (ip), vehicle: saline) is on record?
Answer: 104 % of control

Question: What about the T/C [6] of the same molecule?
Answer: 107 % of control

Question: What about the T/C [7] of the same molecule?
Answer: 111 % of control and 94 % of control

Question: What does the source list for `COCCOC(=O)CCn1nc(-c2ccccc2)c(-c2ccccc2)c(C#N)c1=O`?
Answer: T/C (dose: 100.0 mg/kg/injection, schedule: Q04DX002 (ip), vehicle: saline with Tween-80): 104 % of control; T/C (dose: 200.0 mg/kg/injection, schedule: Q04DX002 (ip), vehicle: saline with Tween-80): 106 % of control; T/C (dose: 400.0 mg/kg/injection, schedule: Q04DX002 (ip), vehicle: saline with Tween-80): 100 % of control

Question: What does the source list for `CCOc1c(N=Nc2ccc(Cl)cc2)c(C)nn1C(N)=S`?
Answer: T/C (dose: 60.0 mg/kg/injection, schedule: Q01DX005 (ip), vehicle: Klucel (hydroxypropylcellulose) (HPC)): 112 % of control; T/C (dose: 120.0 mg/kg/injection, schedule: Q01DX005 (ip), vehicle: Klucel (hydroxypropylcellulose) (HPC)): 112 % of control; T/C (dose: 240.0 mg/kg/injection, schedule: Q01DX005 (ip), vehicle: Klucel (hydroxypropylcellulose) (HPC)): 112 % of control

Question: Which T/C [1] does the source give for `CCCCC(=O)C(=O)c1ccc(O)c(C)c1O` here?
Answer: 96 % of control

Question: And the T/C [2]?
Answer: 93 % of control

Question: And the T/C [3]?
Answer: 96 % of control

Question: `CC(=O)N1CCN(C(C)=O)N(C(C)=O)CCN1C(C)=O` was tested. Which T/C (dose: 100.0 mg/kg/injection, schedule: Q04DX003 (ip), vehicle: suspension in saline) did it give?
Answer: 94 % of control

Question: And the T/C (dose: 200.0 mg/kg/injection, schedule: Q04DX003 (ip), vehicle: suspension in saline)?
Answer: 97 % of control

Question: And the T/C (dose: 400.0 mg/kg/injection, schedule: Q04DX003 (ip), vehicle: suspension in saline)?
Answer: 94 % of control

Question: How did the T/C (dose: 50.0 mg/kg/injection, schedule: Q01DX009 (ip), vehicle: suspension in saline) turn out when `CN(C)c1ccc(C2NC(C(=O)O)CS2)cc1` (stereo not drawn) was run?
Answer: 91 % of control

Question: What about the T/C (dose: 100.0 mg/kg/injection, schedule: Q01DX009 (ip), vehicle: suspension in saline) of the same molecule?
Answer: 100 % of control

Question: And the T/C (dose: 200.0 mg/kg/injection, schedule: Q01DX009 (ip), vehicle: suspension in saline)?
Answer: 100 % of control

Question: `CCN(CC)CCN=c1c(C)nc(C#N)c(N)n1O` was tested. Which T/C (dose: 10.0 mg/kg/injection, schedule: Q01DX009 (ip), vehicle: saline with Tween-80) did it give?
Answer: 100 % of control and 102 % of control and 105 % of control

Question: And the T/C (dose: 20.0 mg/kg/injection, schedule: Q01DX009 (ip), vehicle: saline with Tween-80)?
Answer: 100 % of control and 118 % of control and 96 % of control

Question: And the T/C (dose: 40.0 mg/kg/injection, schedule: Q01DX009 (ip), vehicle: saline with Tween-80)?
Answer: 98 % of control and 103 % of control

Question: What about the T/C (dose: 80.0 mg/kg/injection, schedule: Q01DX009 (ip), vehicle: saline with Tween-80) of the same molecule?
Answer: 98 % of control and 106 % of control

Question: Which T/C (dose: 0.31 mg/kg/injection, schedule: Q01DX009 (ip), vehicle: saline) does the source give for `COCC12CCC(OC)C34C5CC6(O)C(OC)CC(OC(C)=O)(C5C6OC(=O)c5ccccc5)C(C(OC)C13)C4N(C)C2` (stereo not drawn) here?
Answer: 106 % of control

Question: And the T/C (dose: 0.62 mg/kg/injection, schedule: Q01DX009 (ip), vehicle: saline)?
Answer: 101 % of control

Question: What about the T/C (dose: 1.25 mg/kg/injection, schedule: Q01DX009 (ip), vehicle: saline) of the same molecule?
Answer: 110 % of control

Question: What about the T/C (dose: 2.5 mg/kg/injection, schedule: Q01DX009 (ip), vehicle: saline) of the same molecule?
Answer: 102 % of control

Question: What about the T/C (dose: 5.0 mg/kg/injection, schedule: Q01DX009 (ip), vehicle: saline) of the same molecule?
Answer: 108 % of control

Question: Which results are given for `O=C[C@@H](CO)O[C@H](C=O)c1c[nH]c(=O)[nH]c1=O`?
Answer: T/C (dose: 5.0 mg/kg/injection, schedule: Q01DX005 (ip), vehicle: saline): 118 % of control; T/C (dose: 12.5 mg/kg/injection, schedule: Q01DX005 (ip), vehicle: saline): 155 % of control; T/C (dose: 12.5 mg/kg/injection, schedule: Q04DX003 (ip), vehicle: saline): 124 % of control; T/C (dose: 25.0 mg/kg/injection, schedule: Q01DX005 (ip), vehicle: saline): 156 % of control and 158 % of control; T/C (dose: 40.0 mg/kg/injection, schedule: Q01DX005 (ip), vehicle: saline): 155 % of control; T/C [5]: 173 % of control and 190 % of control; T/C (dose: 80.0 mg/kg/injection, schedule: Q01DX005 (ip), vehicle: saline): 186 % of control and 245 % of control; T/C (dose: 100.0 mg/kg/injection, schedule: Q04DX003 (ip), vehicle: saline): 185 % of control

Question: With `COc1cccc2c1C(=O)c1c(O)c3c(c(O)c1C2=O)C[C@@](O)(C(=O)CO)C[C@@H]3OC1CC(OC(C)=O)C(OC(C)=O)C(C)O1` (stereo partly drawn) as the molecule, how does the T/C (dose: 3.13 mg/kg/injection, schedule: Q04DX003 (ip), vehicle: distilled water + Tween-80) read?
Answer: 99 % of control and 123 % of control

Question: And the T/C (dose: 6.25 mg/kg/injection, schedule: Q04DX003 (ip), vehicle: distilled water + Tween-80)?
Answer: 123 % of control

Question: What about the T/C (dose: 12.5 mg/kg/injection, schedule: Q04DX003 (ip), vehicle: distilled water + Tween-80) of the same molecule?
Answer: 163 % of control

Question: And the T/C (dose: 25.0 mg/kg/injection, schedule: Q04DX003 (ip), vehicle: distilled water + Tween-80)?
Answer: 185 % of control and 192 % of control

Question: What about the T/C (dose: 50.0 mg/kg/injection, schedule: Q04DX003 (ip), vehicle: distilled water + Tween-80) of the same molecule?
Answer: 211 % of control and 269 % of control

Question: Which results are given for `CN(C)CCCNc1nc(-c2cccc(C(Cl)(Cl)Cl)c2)nc(C(Cl)(Cl)Cl)n1`?
Answer: T/C (dose: 25.0 mg/kg/injection, schedule: Q01DX009 (ip), vehicle: saline with Tween-80): 109 % of control; T/C [1]: 111 % of control
